Assay results taken from PMC12509316, “Isoform-Selective PAD2/PAD4 Substrates with Unnatural Amino Acids Enable Cellular Peptidylarginine Deiminase Activity Profiling and Reveal Vimentin Citrullination Effects in Macrophages” (Biochemistry, 2025).
Non-standard residues stand in square brackets, D forms with d. *: point of attachment. Phe(3-I) = N[C@@H](Cc1cccc(I)c1)C(=O)O; ACC = NC(=O)Cc1cc(=O)oc2cc(N*)ccc12; hCha = N[C@@H](CCC1CCCCC1)C(=O)O; hPhe = N[C@@H](CCc1ccccc1)C(=O)O; 3Pal = N[C@@H](Cc1cccnc1)C(=O)O; OBn = c1ccc(CO*)cc1

What was measured:
THP-1 cells = assay: Protein analysis of PMA-differentiated THP-1 cells (Western blot); assay type: cell-based, human; conditions: for caspase-1 processing to p10 fragment / vimentin and GSDMD protein levels / GSDMD cleavage: 1 h pretreatment before 40 nM PMA; for caspase-1 processing to p10 fragment / GSDMD cleavage: BAPTA 10 μM, calpeptin 100 μM; for caspase-1 processing to p10 fragment / vimentin and GSDMD protein levels: Cl-amidine 25 μM, Z-DEVD-FMK 10 μM, VX-765 10 μM
Procedure: Low-passage THP-1 cells were seeded into 12-well plates and treated with increasing concentrations of phorbol 12-myristate 13-acetate (PMA) ranging from 1 nM to 100 nM. The cells were incubated for 24 h to allow adherence and differentiation. Following incubation, the cells were lysed, and the lysates were subjected to SDS-PAGE (200 V, 30 min) and Western blot analysis. The expression and cleavage of vimentin, gasdermin D (GSDMD), NLRP3, and caspase-1 were analyzed using specific primary antibodies (1:500–1:1,000), followed by incubation with an antirabbit secondary antibody conjugated to Alexa Fluor 800 (1:10,000). Fluorescence signals were detected using an Azure Biosystems Sapphire RGB-NIR biomolecular imager. Ponceau S staining was used as a loading control to ensure equal protein loading in each lane. In a subsequent experiment, THP-1 cells were pretreated with specific inhibitors for 1 h prior to PMA-induced differentiation (40 nM PMA). The inhibitors used were: BAPTA (10 μM, calcium chelator), calpeptin (100 μM, calpain inhibitor), 4-bisindolylmaleimide (25 μM, PKC inhibitor), N-α-benzoyl-N5-(2-chloro-1-iminoethyl)-L-Orn amide or Cl-amidine (25 μM, pan PAD inhibitor, PADi), Z-DEVD-FMK (10 μM, caspase-3 inhibitor), and VX-765 (10 μM, caspase-1 inhibitor). After PMA treatment, the cells were lysed, and the lysates were processed for SDS-PAGE (200 V, 30 min) and Western blotting. Protein detection and visualization were performed in the same manner as in the cell-based experiments without inhibitors.

PAD2 = assay: Trypsin-coupled fluorogenic citrullination assay of ACC substrates with recombinant PAD2; assay type: biochemical, human; conditions: for citrullination of substrate by PAD2: substrate 10 μM, PAD2 37.5-300 nM (effective at 150-300 nM), 15 min preincubation, then trypsin 5 nM, ACC fluorescence ex 355/em 460 nm, pH 7.2, 5 mM CaCl2, triplicate; for selectivity for PAD2 over PAD4: comparison of citrullination by PAD2 and PAD4, 37.5-300 nM enzyme
Procedure: (§1) All kinetic studies were conducted using an fMax fluorescence plate reader (Molecular Devices) operating in the fluorescence kinetic mode with 96- or 384-well plates. The fluorescence of ACC was monitored at excitation and emission wavelengths of 355 and 460 nm, respectively. The assay buffers for PADs and trypsin consisted of 100 mM TRIS-HCl, 10 mM NaCl, 5 mM CaCl2, and 5 mM DTT (pH 7.2). All experiments, including library screening and substrate kinetics, were repeated at least three times and the average values were reported. Kinetic data were analyzed using GraphPad Prism software (version 10.2.0).
(§2) Substrate screening for PAD2 and PAD4 was performed at a final substrate concentration of 10 μM, as described in “PAD substrate specificity profiling section”. PAD2 and PAD4 were tested across a concentration range of 37.5 nM to 300 nM, whereas the trypsin concentration was 5 nM. Briefly, each substrate was preincubated with the specified concentration of PAD in a 50 μL reaction volume (or in 50 μL of buffer for PAD-untreated control) for 15 min, after which 50 μL of trypsin was added to the reaction wells. The hydrolysis of Arg-containing substrates by trypsin was monitored over time. The percentage of substrate citrullination was calculated by comparing the extent of trypsin-mediated cleavage of untreated substrates with that of substrates preincubated with PAD. Each assay was performed in triplicate, and the resulting citrullination percentages are presented graphically. The standard deviation of each data point was less than 15%.

PAD4 [1] = assay: Trypsin-coupled fluorogenic citrullination assay of ACC substrates with recombinant PAD4; assay type: biochemical, human; conditions: for selectivity for PAD4 over PAD2: comparison of citrullination by PAD4 and PAD2, 37.5-300 nM enzyme; for citrullination of substrate by PAD4: substrate 10 μM, PAD4 37.5-300 nM, 15 min preincubation, then trypsin 5 nM, ACC fluorescence ex 355/em 460 nm, pH 7.2, 5 mM CaCl2, triplicate
Procedure: as §1, §2

[2] = tested on: PMA/LPS-treated THP-1 cells; assay: Western blot of GSDMD and IL-1β processing after DAMP treatment; assay type: cell-based, human
Procedure: THP-1 cells were seeded and stimulated with PMA and LPS, as described in “Protein analysis of PMA-differentiated THP-1 cells” section. After stimulation, vimentin, citrullinated vimentin, or their cleavage products-generated by caspase-3 or calpain-1 digestion were added to the cells, which were then incubated for an additional 48 h. Following incubation, lactate dehydrogenase (LDH) activity in the supernatant was measured using the CytoTox 96 Non-Radioactive Cytotoxicity Assay (G1718) as an indicator of membrane disruption, according to the manufacturer’s protocol. Cytotoxicity was calculated as the percentage of LDH released from the treated samples relative to the LDH release induced by the lysis buffer and normalized to the spontaneous release from the control cells. Absorbance was measured at 490 nm using a spectrophotometric microplate reader (Gemini XPS, Molecular Devices). All experiments were independently performed in triplicate. Statistical analyses were performed using GraphPad Prism software (GraphPad Software, Inc., La Jolla, CA, USA). One-way ANOVA followed by Tukey’s multiple comparisons posthoc test was used to determine statistical significance. For Western blot analysis, proteins from the cell lysates were prepared as described in “Protein analysis of PMA-differentiated THP-1 cells”. To isolate proteins from the supernatant, 1 mL of the sample was mixed with 0.5 mL of 30% trichloroacetic acid (TCA) at room temperature and incubated on ice for 30 min. The mixture was centrifuged at 12,000 × g for 20 min at 4 °C. The supernatant was discarded, and the pellet was washed with 100 μL of 10% TCA, followed by centrifugation. The pellet was then washed with 300 μL of acetone, centrifuged again, and allowed to dry completely. The remaining residues were dissolved in SDS-PAGE loading buffer under reducing conditions. Proteins of interest were detected using primary antibodies against GSDMD and interleukin-1β (IL-1β), followed by secondary antirabbit antibodies conjugated with Alexa Fluor 800. Fluorescence signals were visualized using an Azure Biosystems Sapphire RGB-NIR biomolecular imager. Ponceau S staining was used as a loading control to verify equal protein loading in the SDS-PAGE.

PAD4 [3] = assay: Vimentin citrullination assay (Western blot); assay type: biochemical, human; conditions: recombinant vimentin 80 μg, 100 nM PAD4, 5-60 min
Procedure: Recombinant vimentin (80 μg) was incubated with 100 nM PAD4 for varying durations (5–60 min). Following incubation, the samples were subjected to SDS-PAGE, and the proteins were subsequently transferred onto a nitrocellulose membrane. Western blot analysis was performed using antivimentin and anticitrullinated vimentin antibodies, followed by a secondary antibody conjugated to Alexa Fluor 800 to assess the time-dependent decrease in native vimentin levels and the corresponding increase in citrullinated vimentin levels. Subsequently, both native and citrullinated vimentin were incubated with either human recombinant caspase-3 (20 nM) or calpain-1 (10 nM) for 30 min. After incubation, the samples were analyzed by SDS-PAGE followed by colloidal Coomassie dye G-250 (Thermo, 24590) staining.

Compound: N=C(CCl)NCCC[C@H](NC(=O)c1ccccc1)C(N)=O [Cl-amidine, N-α-benzoyl-N5-(2-chloro-1-iminoethyl)-L-Orn amide]
- caspase-1 processing to p10 fragment (THP-1 cells): prevented
- vimentin and GSDMD protein levels (THP-1 cells): marked downregulation

Compound: O=C(O)CN(CC(=O)O)c1ccccc1OCCOc1ccccc1N(CC(=O)O)CC(=O)O [BAPTA]
- GSDMD cleavage (THP-1 cells): cleavage of GSDMD
- caspase-1 processing to p10 fragment (THP-1 cells): processed into its active 10 kDa fragment

Compound: Ac-D(OBn)[hCha]DR-{ACC} (SMILES CC(=O)N[C@@H](CC(=O)OCc1ccccc1)C(=O)N[C@@H](CCC1CCCCC1)C(=O)N[C@@H](CC(=O)O)C(=O)N[C@@H](CCCNC(=N)N)C(=O)Nc1ccc2c(CC(N)=O)cc(=O)oc2c1) [(4)-NH-11]
- citrullination of substrate by PAD2 (PAD2): some degree of cross-reactivity

Compound: CCCCCCCCCCCCCC(=O)O[C@@H]1[C@@H](C)[C@@]2(O)[C@@H](C=C(CO)C[C@]3(O)C(=O)C(C)=C[C@@H]23)[C@@H]2C(C)(C)[C@]12OC(C)=O [PMA, phorbol 12-myristate 13-acetate]
- GSDMD and NLRP3 protein levels (THP-1 cells; PMA 1-100 nM, 24 h): downregulating
- vimentin protein level (THP-1 cells; PMA 1-100 nM, 24 h): dose-dependent upregulation

Compound: Ac-D(OBn)[dY]DR-{ACC} (SMILES CC(=O)N[C@@H](CC(=O)OCc1ccccc1)C(=O)N[C@H](Cc1ccc(O)cc1)C(=O)N[C@@H](CC(=O)O)C(=O)N[C@@H](CCCNC(=N)N)C(=O)Nc1ccc2c(CC(N)=O)cc(=O)oc2c1) [(4)-NH-2]
- citrullination of substrate by PAD2 (PAD2): poorly recognized
- selectivity for PAD4 over PAD2 (PAD4 [1]): most selective
- citrullination of substrate by PAD4 (PAD4 [1]): efficiently processed

Compound: citrullinated vimentin: PAD4-mediated citrullinated vimentin
- pro-IL-1β processing [2]: no cleavage

Compound: CO[C@@H]1C[C@@H](C[C@H]2CC[C@H](C)[C@H]([C@@H](C)C(=O)O)O2)O[C@]2(O[C@](C)([C@H]3CC[C@@](C)([C@@H]4O[C@@H]([C@H]5O[C@@](O)(CO)[C@H](C)C[C@@H]5C)C[C@@H]4C)O3)C[C@H]2C)[C@@H]1C [nigericin, reference compound]
- GSDMD processing fragment [2]: p31 fragment
- pro-IL-1β processing [2]: activation of pro-interleukin-1β

Compound: Ac-[Phe(3-I)][3Pal]DR-{ACC} (SMILES CC(=O)N[C@@H](Cc1cccc(I)c1)C(=O)N[C@@H](Cc1cccnc1)C(=O)N[C@@H](CC(=O)O)C(=O)N[C@@H](CCCNC(=N)N)C(=O)Nc1ccc2c(CC(N)=O)cc(=O)oc2c1) [(4)-NH-12]
- citrullination of substrate by PAD2 (PAD2): poorly recognized
- selectivity for PAD4 over PAD2 (PAD4 [1]): most selective
- citrullination of substrate by PAD4 (PAD4 [1]): efficiently processed

Compound: Ac-NV[hCha]R-{ACC} (SMILES CC(=O)N[C@@H](CC(N)=O)C(=O)N[C@H](C(=O)N[C@@H](CCC1CCCCC1)C(=O)N[C@@H](CCCNC(=N)N)C(=O)Nc1ccc2c(CC(N)=O)cc(=O)oc2c1)C(C)C) [(2)-NH-8]
- selectivity for PAD2 over PAD4 (PAD2): most selective
- citrullination of substrate by PAD2 (PAD2): higher reactivity
- citrullination of substrate by PAD4 (PAD4 [1]): only minor processing

Compound: CCO[C@@H]1OC(=O)C[C@@H]1NC(=O)[C@@H]1CCCN1C(=O)[C@@H](NC(=O)c1ccc(N)c(Cl)c1)C(C)(C)C [VX-765]
- caspase-1 processing to p10 fragment (THP-1 cells): prevented
- vimentin and GSDMD protein levels (THP-1 cells): marked downregulation

Compound: vimentin: Recombinant vimentin, purchased from Biotechne (NBP2-35139)
- citrullination of vimentin by PAD4 (PAD4 [3]): efficient citrullination
- pro-IL-1β processing [2]: no cleavage

Compound: COC(=O)CC[C@H](NC(=O)[C@H](CC(=O)OC)NC(=O)OCc1ccccc1)C(=O)N[C@H](C(=O)N[C@@H](CC(=O)OC)C(=O)CF)C(C)C [Z-DEVD-fmk, Z-DEVD-FMK]
- caspase-1 processing to p10 fragment (THP-1 cells): prevented
- vimentin and GSDMD protein levels (THP-1 cells): marked downregulation

Compound: Ac-[dY]A[hPhe]R-{ACC} (SMILES CC(=O)N[C@H](Cc1ccc(O)cc1)C(=O)N[C@@H](C)C(=O)N[C@@H](CCc1ccccc1)C(=O)N[C@@H](CCCNC(=N)N)C(=O)Nc1ccc2c(CC(N)=O)cc(=O)oc2c1) [(2)-NH-7]
- selectivity for PAD2 over PAD4 (PAD2): most selective
- citrullination of substrate by PAD2 (PAD2): higher reactivity
- citrullination of substrate by PAD4 (PAD4 [1]): only minor processing

Compound: CCCC[C@@H](C=O)NC(=O)[C@H](CC(C)C)NC(=O)OCc1ccccc1 [calpeptin]
- GSDMD cleavage (THP-1 cells): cleavage of GSDMD
- caspase-1 processing to p10 fragment (THP-1 cells): processed into its active 10 kDa fragment

Compound: Ac-[Phe(3-I)][hCha]DR-{ACC} (SMILES CC(=O)N[C@@H](Cc1cccc(I)c1)C(=O)N[C@@H](CCC1CCCCC1)C(=O)N[C@@H](CC(=O)O)C(=O)N[C@@H](CCCNC(=N)N)C(=O)Nc1ccc2c(CC(N)=O)cc(=O)oc2c1) [(4)-NH-13]
- citrullination of substrate by PAD2 (PAD2): some degree of cross-reactivity
